According to patent US20130331445A1 (Axelar AB, priority 2010, published 2013):

How the values were obtained:
[1] = Solubility in 1% sodium dodecyl sulfate (SDS) by LC-UV; format: physicochemical; conditions: aqueous with cosolvent or surfactant or cyclodextrin, thermodynamic from solid, 1% SDS, 24 hours rotation
Description: The solubility was determined in different media by use of LC-UV chromatography. An excess amount of substance was weighed in vials and 0.5 ml of the medium was added. The substance was rotated in the specific medium at ambient temperature for 24 hours, followed by filtering the supernatant using a hydrophilic PVDF (Millipore Corp.) 0.22 μm filter. The samples were then diluted with a 1:1 mixture of mobile phase A and B (see below) and analyzed using an Xterra™ MS C18, 50×2.1 mm column with UV detection at 288 nm. The mobile phase consisted of acetonitrile, water and trifluoroacetic acid, 5:95:0.1(A) and 99:1:0.1(B).

[2] = tested on: progressive non-small cell lung cancer (NSCLC); test: Phase I/II clinical trial in patients with progressive non-small cell lung cancer; format: in vivo
Description: The patients were assessed with imaging at the start of the study and thereafter every two months.

COc1cc(C2c3cc4c(cc3C(O)[C@H]3COC(=O)[C@@H]23)OCO4)cc(OC)c1OC (stereo partly drawn) [picropodophyllin monohydrate]
solubility at 24 h ([1]; ambient temperature): 210 µg/mL
solubility at 24 h ([1]; corresponds to the mg/ml value): 489 µM
patients with partial response according to RECIST criteria ([2]; NSCLC patients, 390 or 520 mg twice-daily): one
patients still alive at cut-off ([2]; of ten NSCLC patients, 390 or 520 mg twice-daily): five
patients with no detectable progression at cut-off ([2]; of the five NSCLC patients still alive, 390 or 520 mg twice-daily): two
median survival time ([2]; ten NSCLC patients, 390 or 520 mg twice-daily monotherapy, at least two weeks, expected median survival less than 20 weeks): 42 weeks
